Assays:
[1] = tested on: P. aeruginosa (clinical strain from Cystic Fibrosis); test: Survival of bacteria under cycled high/low NO gas exposure (FIG. 8); assay type: cell-based; conditions: 160 ppm NO gas 30 minutes then 20 ppm 3.5 hours, cycled every 4 hours for 24 hours; compared to air
Method: (§1) The effectiveness of the intermittent high dose delivery of nitric oxide gas in combating microorganisms was tested and verified. Briefly, the experimental methods were as follows. Inoculums of varying bacteria was prepared to a suspension of 2.5×10^8 cfu/ml, and diluted 1:1000 in sterile normal saline. Three milliliters of the inoculums were used per well in a sterile culture place. Exposure of the inoculums were performed in an exposure chamber, which has been described for example, in Ghafarri, A. et al., “A direct nitric oxide gas delivery system for bacterial and mammalian cell cultures,” Nitric Oxide. 12(3):129-40 (May 2005), which is hereby incorporated by reference as if fully set forth herein. The inoculums were exposed to 160 ppm of NO gas at a flow rate of 2.5 liters per minute for 30 minutes followed by exposure to 20 ppm of NO gas for 3.5 hours. The exposure to high and low concentrations of NO gas was repeatedly cycled every 4 hours for 24 hours. At various times (e.g., 0, 4, 8, and 12 hours), samples were taken and plated to determine the survivability of the bacteria as determined by counting cfu/ml.
(§2) FIGS. 6-9 show the survival of various bacteria used in the experiment with NO gas compared to exposure to air as control.

E. coli = test: Survival of bacteria under cycled high/low NO gas exposure (FIG. 9); assay type: cell-based; conditions: 160 ppm NO gas 30 minutes then 20 ppm 3.5 hours, cycled every 4 hours for 24 hours; compared to air
Method: as §1, §2

S. aureus (ATCC#25923) = test: Survival of bacteria under cycled high/low NO gas exposure (FIG. 6); assay type: cell-based; conditions: 160 ppm NO gas 30 minutes then 20 ppm 3.5 hours, cycled every 4 hours for 24 hours; compared to air
Method: as §1, §2

[2] = tested on: P. aeruginosa (ATCC#27853); test: Survival of bacteria under cycled high/low NO gas exposure (FIG. 7); assay type: cell-based; conditions: 160 ppm NO gas 30 minutes then 20 ppm 3.5 hours, cycled every 4 hours for 24 hours; compared to air
Method: as §1, §2

[3] = tested on: mycothiol-deficient Mycobacterium smegmatis Mutant MshA; test: Survival of mycothiol-deficient mutant versus wild type on exposure to NO gas (FIG. 10); assay type: cell-based; conditions: 200 ppm NO gas; wild type counterpart mc^2 155
Method: (§3) Additional studies were performed to test the hypothesis that the effect of NO gas in killing microorganisms is related to thiol function. […] This may be due to Mycobacteria having an exceptional thiol, mycothiol, that maintains the redox balance in the cell and protects the cell from nitrosative and oxidative stress. In order to test this hypothesis, sensitivities to NO gas was compared between mycothiol-deficient Mycobacterium smegmatis Mutant MshA to its wild type counterpart, mc^2 155 by exposing both strains to 200 ppm of NO gas. MshA is an enzyme needed in mycothiol biosynthesis.

Mycobacteria = test: Sensitivity of various microorganisms to NO gas damage; assay type: cell-based; conditions: compared with various other microorganisms
Method: as §3

[4] = tested on: mycothiol in wild type M. smegmatis; test: Mycothiol level by HPLC after NO gas exposure (FIG. 11); assay type: cell-based, Mycobacterium smegmatis; conditions: 400 ppm NO gas, compared to exposure to air
Method: Further experiments were conducted to assay and measure the mycothiol level using HPLC in wild type M. smegmatis after exposure to 400 ppm NO gas and were compared to mycothiol level after exposure to air.

[N]=O [NO gas, nitric oxide]
survival of P. aeruginosa clinical strain from Cystic Fibrosis (cfu/ml) [1]: effective method of killing the bacteria
survival of E. coli (cfu/ml) (E. coli): effective method of killing the bacteria
survival of S. aureus (cfu/ml) (S. aureus (ATCC#25923)): effective method of killing the bacteria
survival of P. aeruginosa ATCC#27853 (cfu/ml) [2]: effective method of killing the bacteria
sensitivity of MshA mutant to NO gas versus wild type [3]: more sensitive
time to kill MshA mutant versus wild type [3]: killed in less time than its wild type counterpart
sensitivity of Mycobacteria to NO gas damage (Mycobacteria): less sensitive
level of mycothiol in the mycobacterium [4]: reduced compared to exposure to air

Reference: patent publication US7955294B2, “Intermittent dosing of nitric oxide gas” (Sensormedics Corporation, priority 2004, dated 2011)
